Data from patent US20180148418A1, “AMIDO-SUBSTITUTED CYCLOHEXANE DERIVATIVES” (Bayer Pharma Aktiengesellschaft, priority 2015, published 2018).
Values belong to the molecule of their own block, whether it stands above or below them.

Tests used:
TNKS2 = molecular target: T1, TNKS2 (Homo sapiens, UniProt Q9H2K2); assay: TNKS2 Assay B (auto-parsylation, [3H]-NAD+ SPA); format: biochemical; conditions: 6 nM TNKS2, auto-parsylation, over night at room temperature
T1 construct: purchased BPS Bioscience, San Diego, USA 80572 (TNKS2 Histone Ribosylation Assay Kit)
T1 sequence (Q9H2K2 1-1166): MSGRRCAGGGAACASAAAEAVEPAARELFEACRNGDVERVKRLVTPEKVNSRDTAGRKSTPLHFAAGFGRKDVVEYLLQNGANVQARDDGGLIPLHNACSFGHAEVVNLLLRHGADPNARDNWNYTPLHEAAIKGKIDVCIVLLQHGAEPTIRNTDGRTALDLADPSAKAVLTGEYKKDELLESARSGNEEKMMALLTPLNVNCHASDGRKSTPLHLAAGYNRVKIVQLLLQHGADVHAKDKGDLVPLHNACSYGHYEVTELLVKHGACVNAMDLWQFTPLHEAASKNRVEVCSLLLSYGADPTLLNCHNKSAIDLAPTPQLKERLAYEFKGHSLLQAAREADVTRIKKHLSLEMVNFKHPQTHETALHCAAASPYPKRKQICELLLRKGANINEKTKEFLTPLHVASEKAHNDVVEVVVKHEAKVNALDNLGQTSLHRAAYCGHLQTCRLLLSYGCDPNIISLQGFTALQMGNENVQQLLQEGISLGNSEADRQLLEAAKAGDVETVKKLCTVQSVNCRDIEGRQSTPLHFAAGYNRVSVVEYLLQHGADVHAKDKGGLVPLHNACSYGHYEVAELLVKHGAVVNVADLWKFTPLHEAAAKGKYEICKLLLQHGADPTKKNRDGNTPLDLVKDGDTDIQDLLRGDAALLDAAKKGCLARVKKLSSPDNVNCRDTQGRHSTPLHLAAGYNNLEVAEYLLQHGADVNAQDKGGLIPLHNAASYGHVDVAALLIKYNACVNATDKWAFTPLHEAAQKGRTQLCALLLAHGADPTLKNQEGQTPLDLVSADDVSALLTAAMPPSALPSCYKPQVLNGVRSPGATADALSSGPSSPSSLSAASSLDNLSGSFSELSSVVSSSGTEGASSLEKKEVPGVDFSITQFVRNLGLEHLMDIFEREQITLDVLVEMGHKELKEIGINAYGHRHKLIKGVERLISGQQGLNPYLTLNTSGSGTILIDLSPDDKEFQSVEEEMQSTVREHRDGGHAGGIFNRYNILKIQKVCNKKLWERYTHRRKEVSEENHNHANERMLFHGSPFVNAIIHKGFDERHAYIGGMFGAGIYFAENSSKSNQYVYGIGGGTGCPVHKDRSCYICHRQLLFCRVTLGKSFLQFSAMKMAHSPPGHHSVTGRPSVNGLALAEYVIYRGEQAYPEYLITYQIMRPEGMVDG

[1] = system: wildtype Wnt signaling cascade; assay: HEK293 TOP assay (Super TopFlash luciferase reporter, Wnt-3a stimulated); format: cell-based; conditions: Homo sapiens, HEK293, 16 h, HEK293 TOP reporter cells, Wnt3a at EC50, 16 hours
In short: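 Compound series (50 μM down to 15 nM, 3.16-fold) diluted from DMSO 50-fold into CAFTY buffer, pH 7.4, 2 mM Ca^2+, 0.01% BSA, applied to Wnt-3a-stimulated HEK293 TopFlash and FOP reporter lines in parallel. Cells seeded 10000/well 24 h before; luciferase signal measured.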

Compound: O=C(N[C@H]1CC[C@@]2(CCN(c3cccc(Cl)c3)C2=O)CC1)c1cnn2cccnc12 [Example 268, N-[(trans)-2-(3-chlorophenyl)-1-oxo-2-azaspiro[4.5]dec-8-yl]pyrazolo[1,5-a]pyrimidine-3-carboxamide]
IC50 (TNKS2): 230 nM
IC50 [1]: 76 nM

Compound: O=C(N[C@H]1CC[C@@]2(CCN(c3cccc(Cl)c3)C2=O)CC1)c1cnc2cccnn12 [Example 269, N-[(trans)-2-(3-chlorophenyl)-1-oxo-2-azaspiro[4.5]dec-8-yl]imidazo[1,2-b]pyridazine-3-carboxamide]
IC50 (TNKS2): 290 nM
IC50 [1]: 65 nM

Compound: Cc1cc(C)n2ncc(C(=O)N[C@H]3CC[C@@]4(CCN(c5cccc(Cl)c5)C4=O)CC3)c2n1 [Example 270, N-[(trans)-2-(3-chlorophenyl)-1-oxo-2-azaspiro[4.5]dec-8-yl]-5,7-dimethylpyrazolo[1,5-a]pyrimidine-3-carboxamide]
IC50 (TNKS2): 280 nM
IC50 [1]: 8.9 nM

Compound: CNC(=O)c1nc[nH]c1C(=O)N[C@H]1CC[C@@]2(CCN(c3cccc(Cl)c3)C2=O)CC1 [Example 276, N^5-[(trans)-2-(3-chlorophenyl)-1-oxo-2-azaspiro[4.5]dec-8-yl]-N^4-methyl-1H-imidazole-4,5-dicarboxamide]
IC50 (TNKS2): 89 nM
IC50 [1]: 27 nM

Compound: CCNC(=O)c1nc[nH]c1C(=O)N[C@H]1CC[C@@]2(CCN(c3cccc(Cl)c3)C2=O)CC1 [Example 277, N^5-[(trans)-2-(3-chlorophenyl)-1-oxo-2-azaspiro[4.5]dec-8-yl]-N^4-ethyl-1H-imidazole-4,5-dicarboxamide]
IC50 (TNKS2): 150 nM
IC50 [1]: 40 nM

Compound: CC(C)NC(=O)c1nc[nH]c1C(=O)N[C@H]1CC[C@@]2(CCN(c3cccc(Cl)c3)C2=O)CC1 [Example 278, N^5-[(trans)-2-(3-chlorophenyl)-1-oxo-2-azaspiro[4.5]dec-8-yl]-N^4-(propan-2-yl)-1H-imidazole-4,5-dicarboxamide]
IC50 (TNKS2): 170 nM
IC50 [1]: 90 nM

Compound: O=C(NC1CC1)c1nc[nH]c1C(=O)N[C@H]1CC[C@@]2(CCN(c3cccc(Cl)c3)C2=O)CC1 [Example 279, N^5-[(trans)-2-(3-chlorophenyl)-1-oxo-2-azaspiro[4.5]dec-8-yl]-N^4-cyclopropyl-1H-imidazole-4,5-dicarboxamide]
IC50 (TNKS2): 170 nM
IC50 [1]: 64 nM

Compound: O=C(N[C@H]1CC[C@@]2(CCN(c3cccc(Cl)c3)C2=O)CC1)c1[nH]cnc1C(=O)N1CC(F)C1 [Example 280, N-[(trans)-2-(3-chlorophenyl)-1-oxo-2-azaspiro[4.5]dec-8-yl]-4-[(3-fluoroazetidin-1-yl)carbonyl]-1H-imidazole-5-carboxamide]
IC50 (TNKS2): 94 nM
IC50 [1]: 23 nM

Compound: O=C(NCC(F)(F)F)c1nc[nH]c1C(=O)N[C@H]1CC[C@@]2(CCN(c3cccc(Cl)c3)C2=O)CC1 [Example 281, N^5-[(trans)-2-(3-chlorophenyl)-1-oxo-2-azaspiro[4.5]dec-8-yl]-N^4-(2,2,2-trifluoroethyl)-1H-imidazole-4,5-dicarboxamide]
IC50 (TNKS2): 280 nM
IC50 [1]: 43 nM

Compound: COCCNC(=O)c1nc[nH]c1C(=O)N[C@H]1CC[C@@]2(CCN(c3cccc(Cl)c3)C2=O)CC1 [Example 282, N^5-[(trans)-2-(3-chlorophenyl)-1-oxo-2-azaspiro[4.5]dec-8-yl]-N^4-(2-methoxyethyl)-1H-imidazole-4,5-dicarboxamide]
IC50 (TNKS2): 160 nM
IC50 [1]: 41 nM

These reach a lower IC50 (TNKS2). Values come first.

IC50 (TNKS2): 4 nM
IC50 [1]: 2.3 nM
Compound: CNC(=O)c1nc[nH]c1C(=O)N[C@H]1CC[C@@]2(CCN(c3ccccc3Cl)C2=O)CC1 [Example 264, N^5-[(trans)-2-(2-chlorophenyl)-1-oxo-2-azaspiro[4.5]dec-8-yl]-N^4-methyl-1H-imidazole-4,5-dicarboxamide]

IC50 (TNKS2): 4.8 nM
IC50 [1]: 3.5 nM
Compound: Cc1cc(N2CC[C@]3(CC[C@@H](NC(=O)c4cnc5cccnn45)CC3)C2=O)c(Cl)cc1F [Example 265, N-[(trans)-2-(2-chloro-4-fluoro-5-methylphenyl)-1-oxo-2-azaspiro[4.5]dec-8-yl]imidazo[1,2-b]pyridazine-3-carboxamide]

IC50 (TNKS2): 6.8 nM
IC50 [1]: 6.6 nM
Compound: Cc1cc(C)n2ncc(C(=O)N[C@H]3CC[C@@]4(CCN(c5cc(C)c(F)cc5Cl)C4=O)CC3)c2n1 [Example 266, N-[(trans)-2-(2-chloro-4-fluoro-5-methylphenyl)-1-oxo-2-azaspiro[4.5]dec-8-yl]-5,7-dimethylpyrazolo[1,5-a]pyrimidine-3-carboxamide]

IC50 (TNKS2): 5.2 nM
IC50 [1]: 3.2 nM
Compound: Cc1cc(N2CC[C@]3(CC[C@@H](NC(=O)c4cnn5cccnc45)CC3)C2=O)c(Cl)cc1F [Example 267, N-[(trans)-2-(2-chloro-4-fluoro-5-methylphenyl)-1-oxo-2-azaspiro[4.5]dec-8-yl]pyrazolo[1,5-a]pyrimidine-3-carboxamide]

IC50 (TNKS2): 5.9 nM
IC50 [1]: 3.6 nM
Compound: O=C(N[C@H]1CC[C@@]2(CCN(c3ccccc3Cl)C2=O)CC1)c1cnc2cccnn12 [Example 271, N-[(trans)-2-(2-chlorophenyl)-1-oxo-2-azaspiro[4.5]dec-8-yl]imidazo[1,2-b]pyridazine-3-carboxamide]
